From patent US11008297B2, “Bio-based, multi-aromatic compounds, and methods of making and using same” (ROWAN UNIVERSITY, priority 2017, dated 2021)

Experiment: UV-VIS spectroscopy during titration with sodium hydroxide (pH dependence of absorbance)
Assay type: physicochemical
Settings: 0.25 g in 100 mL deionized water, titrated with 0.1 M sodium hydroxide, UV-VIS at every 0.5 pH
Procedure: FIG. 8 comprises a graph illustrating maximum absorbance as a function of pH for a compound of the invention.
Triguaiacol (0.25 g, Example 4) was dissolved in 100 mL of deionized water. The mixture was titrated with 0.1 M sodium hydroxide solution. At every 0.5 pH, UV-VIS spectroscopy was performed on a portion of the mixture. The wavelength in the absorbance spectrum where the absorbance is at a maximum was measured.

SMILES: COc1cc(C(c2ccc(O)c(OC)c2)c2ccc(O)c(OC)c2)ccc1O [Triguaiacol, 4,4′,4″-methanetriyltris(2-methoxyphenol)]
- wavelength in the absorbance spectrum where the absorbance is at a maximum: decrease with increasing pH
